Measured values from ChEMBL document CHEMBL1201862, “PubChem BioAssay data set” (2004).
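Assay format: 96-well plates, 48-hour exposure. GI50: concentration for 50% inhibition of growth.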 The source made the active and inactive calls. Rule as the data show it: active = GI50 up to about 1.1 µM and inactive = higher.

Legend:
Assay in all cases: growth of human tumour cells (NCI), 48 h
KM-20L2 = test system: KM-20L2
M19-MEL = test system: M19-MEL
XF498 = test system: XF498
HOP-18 = test system: HOP-18
SNB-78 = test system: SNB-78
DMS-273 = test system: DMS-273
RXF 631 = test system: RXF 631
DMS-114 = test system: DMS-114
DLD-1 = test system: DLD-1

| SMILES | GI50 (KM-20L2) | GI50 (M19-MEL) | GI50 (XF498) | GI50 (HOP-18) | GI50 (SNB-78) | GI50 (DMS-273) | GI50 (RXF 631) | GI50 (DMS-114) | GI50 (DLD-1) |
| --- | --- | --- | --- | --- | --- | --- | --- | --- | --- |
| COc1ccc(C=O)c(N(C)C(=O)C(C)(C)C)c1 | > 100 µM (inactive) | > 100 µM (inactive) | 17.1 µM (inactive) | > 100 µM (inactive) | > 100 µM (inactive) | > 100 µM (inactive) | > 100 µM (inactive) | > 100 µM (inactive) | – |
| C[C@]12CC/C(=N\OC(=O)Nc3ccccc3)C=C1CC[C@@H]1C2CC[C@@]2(C)C1CC[C@@H]2OC(=O)Nc1ccccc1 (some centres not stated) | > 100 µM (inactive) | 66.4 µM (inactive) | 13.4 µM (inactive) | > 100 µM (inactive) | > 100 µM (inactive) | > 100 µM (inactive) | – | 23.2 µM (inactive) | – |
| O=C1c2nc3n(c2C(=O)c2c1nc1n2CCC1)CCC3 | 3.61 µM (inactive) | 0.184 µM (active) | 6.38 µM (inactive) | 14 µM (inactive) | 13.8 µM (inactive) | 3.3 µM (inactive) | – | 2.04 µM (inactive) | 5.09 µM (inactive) |
| O=C(CC1(O)C(=O)Nc2ccccc21)c1ccccc1O (configuration not stated) | > 100 µM (inactive) | > 100 µM (inactive) | > 100 µM (inactive) | – | > 100 µM (inactive) | > 100 µM (inactive) | > 100 µM (inactive) | > 100 µM (inactive) | > 100 µM (inactive) |
| COc1ccc(C(=O)C2CCC(C(=O)O)C2)cc1 (configuration not stated) | > 100 µM (inactive) | > 100 µM (inactive) | – | – | > 100 µM (inactive) | > 100 µM (inactive) | – | > 100 µM (inactive) | > 100 µM (inactive) |
| COc1ccc(C)cc1-c1cc(Sc2ccccc2)c(-c2cc(C)ccc2OC)o1 | > 31.6 µM (inactive) | > 31.6 µM (inactive) | > 100 µM (inactive) | > 31.6 µM (inactive) | > 31.6 µM (inactive) | > 31.6 µM (inactive) | > 31.6 µM (inactive) | > 31.6 µM (inactive) | > 31.6 µM (inactive) |
| O=C(OCc1ccccc1)N1N=NC2C1C1CC(OCc3ccccc3)(OCc3ccccc3)C2O1 (configuration not stated) | > 100 µM (inactive) | > 100 µM (inactive) | > 100 µM (inactive) | > 100 µM (inactive) | > 100 µM (inactive) | > 100 µM (inactive) | – | – | > 100 µM (inactive) |
| O=S(=O)(N/N=C/c1cccc(Cl)c1Cl)c1ccccc1 | > 100 µM (inactive) | 93.8 µM (inactive) | 54.7 µM (inactive) | 87.3 µM (inactive) | > 100 µM (inactive) | 71.4 µM (inactive) | – | 27.7 µM (inactive) | 45.4 µM (inactive) |
| Cc1nc2c(n1C(C)(C)C)C(=O)c1ccccc1C2=O | 51.5 µM (inactive) | 24.8 µM (inactive) | 44 µM (inactive) | – | > 100 µM (inactive) | 52.8 µM (inactive) | – | – | 87.3 µM (inactive) |
| CC(C)(C)c1cc2c(OP(c3ccccc3)c3ccccc3)c(c1)Cc1cc(C(C)(C)C)cc(c1OP(c1ccccc1)c1ccccc1)Cc1cc(C(C)(C)C)cc(c1OP(c1ccccc1)c1ccccc1)Cc1cc(C(C)(C)C)cc(c1OP(c1ccccc1)c1ccccc1)C2 | > 5 µM (inactive) | > 5 µM (inactive) | – | > 5 µM (inactive) | > 5 µM (inactive) | > 5 µM (inactive) | – | > 5 µM (inactive) | > 5 µM (inactive) |
| O=C(c1cc(=O)c2ccc(O)cc2o1)c1ccc(Cl)cc1Cl | 10.6 µM (inactive) | 13.8 µM (inactive) | 26.8 µM (inactive) | 29.4 µM (inactive) | 31.3 µM (inactive) | 3.89 µM (inactive) | 11.1 µM (inactive) | 3.92 µM (inactive) | 17.4 µM (inactive) |
| CC1(Sc2ccccc2)CN(Cc2ccccc2)C1=O (configuration not stated) | > 100 µM (inactive) | > 100 µM (inactive) | 39.5 µM (inactive) | > 100 µM (inactive) | > 100 µM (inactive) | > 100 µM (inactive) | > 100 µM (inactive) | 45.6 µM (inactive) | > 100 µM (inactive) |
| O=C1c2ccccc2C(=O)c2c1ccc1c3ccccc3n(Cc3ccccc3)c21 | – | 88.7 µM (inactive) | > 100 µM (inactive) | 0.0319 µM (active) | – | – | – | > 100 µM (inactive) | > 100 µM (inactive) |
| COc1cc2cccc(/N=C/c3c(Br)ccc(OC)c3OC(C)C)c2cc1OC | > 100 µM (inactive) | 30.1 µM (inactive) | 56.9 µM (inactive) | – | 38.6 µM (inactive) | – | – | 25.6 µM (inactive) | 23.8 µM (inactive) |
| Cc1cc(N(CCC#N)CCC#N)ccc1/C=N\c1ccc(C(=O)NN2C(=O)/C(=C/c3ccc(N(CCC#N)CCC#N)cc3)N=C2c2cc([N+](=O)[O-])ccc2Cl)cc1 | 67.1 µM (inactive) | > 100 µM (inactive) | 61.9 µM (inactive) | 5.4 µM (inactive) | > 100 µM (inactive) | 47.6 µM (inactive) | > 100 µM (inactive) | > 100 µM (inactive) | 78.9 µM (inactive) |
| CC(C)[C@H]1CO[C@]2(C)[C@@H]3CN(Cc4ccccc4)C[C@@H]3C(=O)N12 | > 100 µM (inactive) | > 100 µM (inactive) | – | > 100 µM (inactive) | – | > 100 µM (inactive) | – | > 100 µM (inactive) | > 100 µM (inactive) |
| CC1=CC(C)(c2c[nH]c3ccccc23)CC(C)(C)c2c1[nH]c1ccccc21 (configuration not stated) | 14.8 µM (inactive) | 19.7 µM (inactive) | 20.6 µM (inactive) | > 100 µM (inactive) | 28.2 µM (inactive) | – | 14.5 µM (inactive) | 14.9 µM (inactive) | 13.7 µM (inactive) |
| COc1ccc(/C=C(\NC(=O)c2ccccc2)c2nc3ccccc3[nH]2)cc1 | 38.5 µM (inactive) | 35.6 µM (inactive) | 18.5 µM (inactive) | – | – | 29.5 µM (inactive) | – | 24.8 µM (inactive) | 33.6 µM (inactive) |
